In patent publication US20230312643A1, “PEPTIDE DERIVATIVE WITH COLLAGENASE INHIBITORY ACTIVITY, AND USE THEREOF” (SUNMARINE BIOTECH, priority 2020, published 2023):

Key:
MMP1 protein (pdb1cgl) = biological target: T1, MMP1 protein (pdb1cgl) (Homo sapiens, UniProt P03956); assay: Molecular docking (SYBYL-X 2.1.1, Surflex-Dock 2.7) of binding affinity to collagenase; settings: from Surflex-Dock total score
T1 sequence (P03956 101-269 limits assumed): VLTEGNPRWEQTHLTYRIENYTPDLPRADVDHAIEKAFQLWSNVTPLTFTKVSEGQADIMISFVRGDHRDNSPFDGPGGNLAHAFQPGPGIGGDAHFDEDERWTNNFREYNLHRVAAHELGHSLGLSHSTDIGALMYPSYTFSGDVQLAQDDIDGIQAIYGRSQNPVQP
Experimental: Molecular modeling was conducted through a computer simulation program.
Target structure: MMP1 protein (pdb1cgl)
Software: SYBYL-X 2.1.1, Surflex-Dock2.7
Through a computer simulation program, a study was conducted on how to promote collagenase enzyme inhibitory activity and percutaneous absorption during peptide modification.
Total score is a value indicating the degree of binding affinity of a docked structure including a crash and a polar interaction in the unit of pKd, and the larger the value, the higher the binding affinity. And, the similarity is a value comparing the similarity with the structure already bonded to the 1cgl, and means that the closer to 1, the more similar. The result of such docking means that the addition of an appropriate modification residue through a docking simulation of computer chemistry may increase the binding affinity and similarity.
However, when compared with the overall consensus score, a binding affinity similar to or higher than that of pdb1cgl_ligand may be expected, particularly in the modified GPN and PGN, too.

[1] = HaCaT cytotoxicity test (MTS cell viability); format: cell-based; settings: human, HaCaT cells (skin epidermal cells)
Experimental: HaCaT cells, skin epidermal cells (derived from human), were used. The medium was DMEM low (SH30021.01, HyClone™, Logan, UT, USA) medium containing 10% fetal bovine serum (FBS, Lonza, Valais, Switzerland) medium. The cell lines were cultured in an incubator adjusted to 95% humidity, 5% CO2 and 37° C., and at this time, a medium antibiotic (Penicillin streptomycin, Gibco, Calif., USA) was used to suppress contamination or proliferation of microorganisms. When the cells covered the dish about 80%, the cells were washed with phosphated-buffered saline-EDTA (PBS-EDTA), and then the cells attached to the bottom of the dish were detached by treating with 1 ml of 0.05% trypsin EDTA, and subjected to subculture. The medium was exchanged every 48 hours to culture the cells.
Cell viability was measured using MTS (CellTiter 96® AQueous One Solution Cell Proliferation Assay, Promega, USA) reagent. The cells were divided at a concentration of 1×10^4 cells/well in a 96-well plate and then stabilized for 24 hours in an incubator controlled to 95% humidity, 5% CO2 and 37° C. After that, the samples were treated for each concentration (table 1) and cultured for 24 hours in an incubator controlled to 95% humidity, 5% CO2 and 37° C. After the medium was removed, 9 ml of medium (DMEM low, free FBS) was added to 1 ml of the reagent and diluted, and then 100 ul of the diluted solution was treated per well. After the reaction at 37° C. for 60 minutes, absorbance was measured at 490 nm with microplate reader (Molecular Devices, VersaMax ELISA Microplate Reader, USA). Cell viability was represented by absorbance of a sample-treated group compared to a control group not treated with the sample.

elastase = biological target: T2, elastase (Sus scrofa, UniProt P00772); assay: Elastase inhibitory activity (EnzChek Elastase Assay Kit, DQ elastin); format: biochemical
T2 construct: purchased Invitrogen
Experimental: Elastase inhibitory activity was performed by purchasing EnzChek® Elastase Assay Kit (600 Assays) reagent from Invitrogen. First, DQ elastin stock solution (1 mg/ml) was prepared by adding 1.0 ml of DDW to 1 mg DQ elastin vial. The 18 ml of DDW was added to 2 ml of 10× reaction buffer, so as to dilute reaction buffer. Then, an elastase enzyme reagent was prepared, and diluted with reaction buffer to a final concentration of 0.2 U/ml as working solution. Three samples of 50 ? each were prepared in a 96-well plate. The 50 ? of reaction buffer was added to 50 ? of DQ elastin and sample blank, and 50 ? of working solution was added to a sample, which were then left in a light-blocked state at room temperature for about one hour, and then fluorescence intensity was measured at excitation wavelength 505 nm and emission wavelength 515 nm using ELISA plate reader (VICTOR X3™, PerkinElmer, US).
Copper peptide (Comparative Example 12) and EGCg (Comparative Example 13), which is widely used as a raw material for functional cosmetics, were prepared at the same concentration and used as a positive control.
EGCg (epigallocatechin gallate) is a kind of polyphenol, which is an extract of green tea leaves, and is used as a cosmetic raw material for anti-oxidation, inflammation reduction, and wrinkle alleviation, and Copper peptide is used as a raw material for promoting wound healing, strengthening skin elasticity, and increasing subcutaneous fat layer to suppress skin aging due to excellent skin regeneration ability.

gelatinase = assay: Gelatinase inhibitory activity (EnzChek Gelatinase/Collagenase Assay Kit, DQ gelatin); format: biochemical
Experimental: Gelatinase is an enzyme which plays a major role in promoting skin aging by more finely degrading collagen fragments digested by MMP-1 with MMP-2, and wrinkle reduction activity was determined by measuring the inhibitory activity of the enzyme.
Gelatinase inhibitory activity was performed by purchasing EnzChek® Gelatinase/Collagenase Assay Kit (250-2000 Assays) reagent from Invitrogen. First, DQ gelatin stock solution (1 mg/ml) was prepared by adding 1.0 ml of DDW to 1 mg DQ gelatin vial. The 18 ml of DDW was added to 2 ml of 10× reaction buffer, so as to dilute reaction buffer. Then, a gelatinase enzyme reagent was prepared, and diluted with reaction buffer to a final concentration of 0.2 U/ml as working solution. Three samples of 50 ? each were prepared in a 96-well plate. The 30 ? of reaction buffer was added to 20 ? of DQ gelatin and sample blank, and 30 ? of working solution was added to a sample, which were then left in a light-blocked state at room temperature for about one to two hours, and then fluorescence intensity was measured at excitation wavelength 485 nm and 535 nm using ELISA plate reader (VICTOR X3™, PerkinElmer, US).

T2 sequence (P00772 27-266): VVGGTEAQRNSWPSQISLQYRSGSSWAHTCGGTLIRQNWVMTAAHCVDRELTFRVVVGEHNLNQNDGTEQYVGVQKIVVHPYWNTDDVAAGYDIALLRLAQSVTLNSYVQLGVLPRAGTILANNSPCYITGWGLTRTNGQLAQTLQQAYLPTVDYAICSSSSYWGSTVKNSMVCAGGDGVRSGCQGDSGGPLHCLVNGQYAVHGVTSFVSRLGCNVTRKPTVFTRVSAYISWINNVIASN

With `NC(=O)C[C@H](NC(=O)CNC(=O)[C@@H]1CCCN1)C(=O)O` [PGN, Pro-Gly-Asn, reference compound] the “binding affinity compared to 1cgl ligand” value (MMP1 protein (pdb1cgl)) was about 61.5%, the viability at 24 h, 1 µg/mL ([1]; 1 μg/ml) was 118 ± 3.1% and the viability at 24 h, 10 µg/mL ([1]; 10 μg/ml) was 129 ± 2.8%. The viability at 24 h, 50 µg/mL ([1]; 50 μg/ml) was 125 ± 7.6%, the viability at 24 h, 100 µg/mL ([1]; 100 μg/ml) was 128 ± 4.1% and the inhibition at 20 µg/mL (elastase; 0.02 mg/ml) was 1.8 ± 0.6%. The inhibition at 40 µg/mL (elastase; 0.04 mg/ml) was 2.8 ± 1.2%, the inhibition at 60 µg/mL (elastase; 0.06 mg/ml) was 6.1 ± 1.9% and the inhibition at 100 µg/mL (elastase; 0.1 mg/ml) was 7.5 ± 3.2%. It also gave an inhibition at 1000 µg/mL (elastase; 1 mg/ml) of 7.5%, an IC50 (elastase; FIGS. 8 and 9) of 384 µM and a Gelatinase inhibitory activity (gelatinase; 0.2 mg/ml) of 1.5 ± 5.5%. The Gelatinase inhibitory activity (gelatinase; 0.3 mg/ml) was 9.8 ± 0.8%, the Gelatinase inhibitory activity (gelatinase; 0.4 mg/ml) was 63.1 ± 2.1% and the Gelatinase inhibitory activity (gelatinase; 0.5 mg/ml) was 80.5 ± 1.2%.
